From ChEMBL document CHEMBL3352260, “Identification and development of biphenyl substituted iminosugars as improved dual glucosylceramide synthase/neutral glucosylceramidase inhibitors” (J Med Chem, 2014)

Legend:
Beta-glucosidase = biological target: T1, Beta-glucosidase (Homo sapiens, UniProt Q9HCG7)
T1 sequence (Q9HCG7 whole entry): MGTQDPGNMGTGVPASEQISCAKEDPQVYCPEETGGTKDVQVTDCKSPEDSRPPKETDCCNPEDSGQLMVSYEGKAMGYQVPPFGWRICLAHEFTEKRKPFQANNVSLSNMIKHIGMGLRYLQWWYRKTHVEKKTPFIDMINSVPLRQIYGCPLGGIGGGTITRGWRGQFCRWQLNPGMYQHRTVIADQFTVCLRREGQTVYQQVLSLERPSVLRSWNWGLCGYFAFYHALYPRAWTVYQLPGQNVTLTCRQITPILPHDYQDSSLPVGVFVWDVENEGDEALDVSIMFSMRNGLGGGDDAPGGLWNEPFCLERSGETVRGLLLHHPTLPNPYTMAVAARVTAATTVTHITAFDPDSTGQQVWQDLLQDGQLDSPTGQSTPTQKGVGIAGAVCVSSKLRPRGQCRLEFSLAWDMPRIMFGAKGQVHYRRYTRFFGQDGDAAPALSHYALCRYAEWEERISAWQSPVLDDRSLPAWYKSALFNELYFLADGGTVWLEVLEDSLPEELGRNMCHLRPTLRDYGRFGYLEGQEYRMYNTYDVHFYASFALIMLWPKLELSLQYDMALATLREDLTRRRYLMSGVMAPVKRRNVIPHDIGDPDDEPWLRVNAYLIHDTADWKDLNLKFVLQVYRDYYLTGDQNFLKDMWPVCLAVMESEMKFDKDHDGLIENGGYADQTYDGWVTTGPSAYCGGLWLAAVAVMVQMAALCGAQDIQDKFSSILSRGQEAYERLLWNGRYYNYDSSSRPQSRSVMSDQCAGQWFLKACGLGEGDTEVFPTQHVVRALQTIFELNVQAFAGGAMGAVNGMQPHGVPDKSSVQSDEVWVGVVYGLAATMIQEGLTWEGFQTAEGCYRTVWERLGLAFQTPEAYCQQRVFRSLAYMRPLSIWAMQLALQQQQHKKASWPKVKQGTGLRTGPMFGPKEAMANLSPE

[1] = biological target: T2, Lysosomal acid glucosylceramidase (Homo sapiens, UniProt P04062)
T2 sequence (P04062 whole entry): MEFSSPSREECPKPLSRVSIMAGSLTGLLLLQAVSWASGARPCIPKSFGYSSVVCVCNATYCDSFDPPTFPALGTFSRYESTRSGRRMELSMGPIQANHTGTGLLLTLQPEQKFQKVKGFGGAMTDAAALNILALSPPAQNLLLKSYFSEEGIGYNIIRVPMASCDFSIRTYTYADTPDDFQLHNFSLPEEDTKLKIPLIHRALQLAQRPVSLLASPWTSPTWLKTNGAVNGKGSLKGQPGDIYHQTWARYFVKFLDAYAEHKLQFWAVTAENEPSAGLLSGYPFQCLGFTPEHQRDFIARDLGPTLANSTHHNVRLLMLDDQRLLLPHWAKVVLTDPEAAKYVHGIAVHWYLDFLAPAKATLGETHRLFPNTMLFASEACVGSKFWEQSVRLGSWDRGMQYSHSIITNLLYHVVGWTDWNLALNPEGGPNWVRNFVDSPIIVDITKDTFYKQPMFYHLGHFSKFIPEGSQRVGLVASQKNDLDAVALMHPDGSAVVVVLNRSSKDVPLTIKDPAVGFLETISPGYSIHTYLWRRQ

[2] = biological target: T3, Ceramide glucosyltransferase (Homo sapiens, UniProt Q16739)
T3 sequence (Q16739 whole entry): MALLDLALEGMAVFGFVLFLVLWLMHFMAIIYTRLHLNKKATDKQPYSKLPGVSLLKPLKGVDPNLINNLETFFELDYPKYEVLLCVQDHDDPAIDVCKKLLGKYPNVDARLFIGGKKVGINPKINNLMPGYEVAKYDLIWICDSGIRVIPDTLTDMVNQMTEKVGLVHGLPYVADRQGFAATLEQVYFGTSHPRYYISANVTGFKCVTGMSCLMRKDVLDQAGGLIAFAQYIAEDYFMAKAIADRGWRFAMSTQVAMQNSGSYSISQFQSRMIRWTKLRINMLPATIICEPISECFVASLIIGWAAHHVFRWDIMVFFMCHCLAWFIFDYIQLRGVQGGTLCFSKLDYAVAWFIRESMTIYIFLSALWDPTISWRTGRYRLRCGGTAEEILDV

Maltase-glucoamylase = Maltase-glucoamylase (Homo sapiens, UniProt O43451); assay: Inhibition of intestinal maltase (unknown origin)
[3] = biological target: Sucrase-isomaltase, intestinal (Homo sapiens, UniProt P14410); assay: Inhibition of intestinal sucrase (unknown origin)
[4] = biological target: Lactase/phlorizin hydrolase (Homo sapiens, UniProt P09848); assay: Inhibition of intestinal lactase (unknown origin)
[5] = biological target: T3, Ceramide glucosyltransferase; remark: listed apart in the source

Sequence of Sucrase-isomaltase, intestinal (P14410 2-1007 limits assumed): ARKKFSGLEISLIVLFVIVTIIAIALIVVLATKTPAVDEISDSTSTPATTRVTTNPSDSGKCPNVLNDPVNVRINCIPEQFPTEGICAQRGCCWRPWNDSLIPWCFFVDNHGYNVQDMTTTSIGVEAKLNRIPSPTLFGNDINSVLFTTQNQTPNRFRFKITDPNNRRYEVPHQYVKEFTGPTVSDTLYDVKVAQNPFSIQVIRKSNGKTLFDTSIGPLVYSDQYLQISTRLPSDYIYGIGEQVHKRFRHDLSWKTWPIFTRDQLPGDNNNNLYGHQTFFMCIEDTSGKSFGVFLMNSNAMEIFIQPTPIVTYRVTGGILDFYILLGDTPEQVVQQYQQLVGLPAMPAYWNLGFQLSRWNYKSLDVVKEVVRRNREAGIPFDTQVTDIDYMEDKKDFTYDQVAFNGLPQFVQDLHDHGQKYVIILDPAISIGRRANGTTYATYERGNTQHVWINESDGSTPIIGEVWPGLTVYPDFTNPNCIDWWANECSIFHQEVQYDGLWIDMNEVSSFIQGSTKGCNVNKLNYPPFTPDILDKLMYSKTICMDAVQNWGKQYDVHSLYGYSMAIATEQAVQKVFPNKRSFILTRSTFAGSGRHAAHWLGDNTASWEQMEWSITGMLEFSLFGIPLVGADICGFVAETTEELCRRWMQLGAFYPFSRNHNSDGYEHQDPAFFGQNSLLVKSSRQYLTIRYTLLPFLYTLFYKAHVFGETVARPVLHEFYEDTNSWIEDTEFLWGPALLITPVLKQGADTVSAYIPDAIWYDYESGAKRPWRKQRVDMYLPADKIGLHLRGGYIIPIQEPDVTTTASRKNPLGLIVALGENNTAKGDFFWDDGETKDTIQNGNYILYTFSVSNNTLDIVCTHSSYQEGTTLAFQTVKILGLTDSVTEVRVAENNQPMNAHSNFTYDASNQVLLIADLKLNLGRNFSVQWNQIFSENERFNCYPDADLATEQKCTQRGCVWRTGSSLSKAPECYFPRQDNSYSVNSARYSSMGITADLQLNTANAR
Sequence of Sucrase-isomaltase, intestinal (P14410 1008-1827 limits assumed): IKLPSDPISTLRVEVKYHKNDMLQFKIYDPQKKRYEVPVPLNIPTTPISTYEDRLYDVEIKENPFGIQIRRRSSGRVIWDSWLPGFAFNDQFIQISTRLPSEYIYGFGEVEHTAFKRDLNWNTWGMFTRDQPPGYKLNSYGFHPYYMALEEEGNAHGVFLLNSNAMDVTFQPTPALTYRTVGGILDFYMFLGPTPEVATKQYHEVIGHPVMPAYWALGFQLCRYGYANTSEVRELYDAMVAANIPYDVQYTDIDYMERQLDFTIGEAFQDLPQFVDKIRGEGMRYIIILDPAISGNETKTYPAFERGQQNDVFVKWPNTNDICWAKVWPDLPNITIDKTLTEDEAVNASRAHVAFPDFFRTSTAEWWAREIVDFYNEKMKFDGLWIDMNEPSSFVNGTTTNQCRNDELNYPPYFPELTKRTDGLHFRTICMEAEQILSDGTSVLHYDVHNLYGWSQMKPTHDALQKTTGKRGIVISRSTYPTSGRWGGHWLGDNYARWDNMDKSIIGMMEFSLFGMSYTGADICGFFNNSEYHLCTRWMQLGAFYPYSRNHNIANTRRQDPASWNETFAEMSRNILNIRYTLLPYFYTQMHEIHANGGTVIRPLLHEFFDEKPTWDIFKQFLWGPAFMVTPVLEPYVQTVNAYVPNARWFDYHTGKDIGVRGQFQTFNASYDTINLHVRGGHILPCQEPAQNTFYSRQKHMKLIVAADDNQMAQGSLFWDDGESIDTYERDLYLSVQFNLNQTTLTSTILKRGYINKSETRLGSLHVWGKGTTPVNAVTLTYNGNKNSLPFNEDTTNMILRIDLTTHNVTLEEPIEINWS
Sequence of Maltase-glucoamylase (O43451 whole entry): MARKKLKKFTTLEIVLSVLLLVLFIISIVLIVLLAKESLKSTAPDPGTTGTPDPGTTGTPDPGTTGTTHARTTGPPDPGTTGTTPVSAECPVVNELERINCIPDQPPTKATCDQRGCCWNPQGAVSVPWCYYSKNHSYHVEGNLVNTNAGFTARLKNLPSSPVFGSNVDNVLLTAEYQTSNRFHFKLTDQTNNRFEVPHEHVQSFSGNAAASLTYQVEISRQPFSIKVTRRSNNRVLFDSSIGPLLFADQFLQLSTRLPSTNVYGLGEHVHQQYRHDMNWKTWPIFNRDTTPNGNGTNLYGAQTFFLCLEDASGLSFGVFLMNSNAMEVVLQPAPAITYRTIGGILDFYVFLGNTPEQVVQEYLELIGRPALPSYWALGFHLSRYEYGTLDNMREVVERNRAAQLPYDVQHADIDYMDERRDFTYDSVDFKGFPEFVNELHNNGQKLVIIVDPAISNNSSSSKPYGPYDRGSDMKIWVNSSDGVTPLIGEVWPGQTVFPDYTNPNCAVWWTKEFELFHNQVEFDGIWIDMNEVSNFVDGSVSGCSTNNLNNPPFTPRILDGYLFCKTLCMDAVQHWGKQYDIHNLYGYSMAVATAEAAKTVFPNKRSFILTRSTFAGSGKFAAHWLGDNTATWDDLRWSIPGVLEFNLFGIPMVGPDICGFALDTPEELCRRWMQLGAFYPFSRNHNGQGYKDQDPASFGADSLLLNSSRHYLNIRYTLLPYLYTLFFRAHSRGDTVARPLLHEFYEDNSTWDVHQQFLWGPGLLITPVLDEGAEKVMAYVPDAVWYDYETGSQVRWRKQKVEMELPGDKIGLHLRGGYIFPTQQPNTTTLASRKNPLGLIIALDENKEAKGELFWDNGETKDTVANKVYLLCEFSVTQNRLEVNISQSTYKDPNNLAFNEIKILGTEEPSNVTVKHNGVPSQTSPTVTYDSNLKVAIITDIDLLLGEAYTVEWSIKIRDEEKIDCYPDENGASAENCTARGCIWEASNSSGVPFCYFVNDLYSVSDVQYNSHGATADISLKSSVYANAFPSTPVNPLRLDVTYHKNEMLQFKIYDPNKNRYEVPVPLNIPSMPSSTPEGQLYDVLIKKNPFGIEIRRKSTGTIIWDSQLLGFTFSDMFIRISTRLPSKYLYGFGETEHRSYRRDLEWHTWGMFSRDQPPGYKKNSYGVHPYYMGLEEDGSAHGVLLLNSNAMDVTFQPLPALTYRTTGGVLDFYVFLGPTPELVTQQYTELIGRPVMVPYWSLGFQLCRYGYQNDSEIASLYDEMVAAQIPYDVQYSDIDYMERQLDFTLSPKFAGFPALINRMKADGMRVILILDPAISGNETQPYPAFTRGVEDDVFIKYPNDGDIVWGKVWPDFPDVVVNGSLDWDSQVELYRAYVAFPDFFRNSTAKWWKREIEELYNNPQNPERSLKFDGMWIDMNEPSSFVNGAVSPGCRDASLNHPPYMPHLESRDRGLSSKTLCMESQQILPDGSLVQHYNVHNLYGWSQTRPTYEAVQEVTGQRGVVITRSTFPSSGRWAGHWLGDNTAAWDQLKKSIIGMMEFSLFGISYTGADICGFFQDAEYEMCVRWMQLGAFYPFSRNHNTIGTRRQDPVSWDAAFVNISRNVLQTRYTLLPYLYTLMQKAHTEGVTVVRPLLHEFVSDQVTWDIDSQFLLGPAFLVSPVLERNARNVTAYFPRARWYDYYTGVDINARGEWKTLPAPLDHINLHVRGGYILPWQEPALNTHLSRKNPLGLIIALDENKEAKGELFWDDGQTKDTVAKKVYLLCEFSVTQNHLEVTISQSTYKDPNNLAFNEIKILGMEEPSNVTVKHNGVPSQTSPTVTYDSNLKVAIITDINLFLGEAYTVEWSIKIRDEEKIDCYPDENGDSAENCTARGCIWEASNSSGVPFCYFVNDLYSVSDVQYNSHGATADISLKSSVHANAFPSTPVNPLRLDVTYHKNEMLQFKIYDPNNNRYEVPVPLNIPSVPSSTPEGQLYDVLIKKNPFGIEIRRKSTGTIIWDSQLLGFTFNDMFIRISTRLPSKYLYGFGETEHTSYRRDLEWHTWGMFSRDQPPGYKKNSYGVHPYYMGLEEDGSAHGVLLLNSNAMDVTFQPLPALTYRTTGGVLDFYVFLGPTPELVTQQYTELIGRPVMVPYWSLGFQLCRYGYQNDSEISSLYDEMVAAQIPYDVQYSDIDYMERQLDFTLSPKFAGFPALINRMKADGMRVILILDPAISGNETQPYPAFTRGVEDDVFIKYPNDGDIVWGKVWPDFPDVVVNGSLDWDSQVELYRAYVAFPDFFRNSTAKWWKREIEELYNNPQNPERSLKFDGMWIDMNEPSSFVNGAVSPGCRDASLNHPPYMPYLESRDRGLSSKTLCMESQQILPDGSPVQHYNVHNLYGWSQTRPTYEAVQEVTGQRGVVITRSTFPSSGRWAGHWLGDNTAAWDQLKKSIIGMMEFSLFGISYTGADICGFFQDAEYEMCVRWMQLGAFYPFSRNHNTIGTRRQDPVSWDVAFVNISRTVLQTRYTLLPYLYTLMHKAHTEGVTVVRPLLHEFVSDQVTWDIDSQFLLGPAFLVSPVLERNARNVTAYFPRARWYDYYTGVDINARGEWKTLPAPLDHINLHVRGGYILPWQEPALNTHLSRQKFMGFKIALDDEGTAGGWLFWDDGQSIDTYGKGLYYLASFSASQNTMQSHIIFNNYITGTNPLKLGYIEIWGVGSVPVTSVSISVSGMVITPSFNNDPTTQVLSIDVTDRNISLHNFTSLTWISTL

Row | IC50 (Beta-glucosidase) [nM] | IC50 [1] [nM] | IC50 [2] | IC50 (Maltase-glucoamylase) [nM] | IC50 [3] [nM] | IC50 [4] [nM] | IC50 [5] [nM] | SMILES
1 | 5 | 500 | Not Active | – | – | – | – | OC[C@@H]1[C@@H](O)[C@H](O)[C@@H](O)CN1CCCC/C=C\C12CC3CC(CC(C3)C1)C2
2 | 10 | 60 | Not Active | – | – | – | – | OC[C@@H]1[C@@H](O)[C@H](O)[C@@H](O)CN1CCCCCCC12CC3CC(CC(C3)C1)C2
3 | 100 | 2500 | Not Active | – | – | – | – | CC(C)=CCC/C(C)=C/CC/C(C)=C/CCOCCCCCN1C[C@H](O)[C@@H](O)[C@H](O)[C@H]1CO
4 | 8 | 12000 | Not Active | – | – | – | – | OC[C@H]1[C@@H](O)[C@H](O)[C@@H](O)CN1CCCC/C=C\C12CC3CC(CC(C3)C1)C2
5 | 20 | 25000 | Not Active | – | – | – | – | OC[C@H]1[C@@H](O)[C@H](O)[C@@H](O)CN1CCCCCCC12CC3CC(CC(C3)C1)C2
6 | 3 | 300 | – | 4000 | 500 | 35000 | – | C[C@@H](OCCCCCN1C[C@H](O)[C@@H](O)[C@H](O)[C@H]1CO)c1ccc(-c2ccccc2)cc1
7 | – | – | – | > 100000 | 100000 | 60000 | 70 | OC[C@H]1[C@@H](O)[C@H](O)[C@@H](O)CN1CCCCCOCc1cccc(-c2ccccc2)c1

More lines, now with the values behind:

Row | SMILES | IC50 (Beta-glucosidase) [nM] | IC50 [1] [nM] | IC50 [2] | IC50 (Maltase-glucoamylase) [nM] | IC50 [3] [nM] | IC50 [4] [nM] | IC50 [5] [nM]
8 | OC[C@@H]1[C@@H](O)[C@H](O)[C@@H](O)CN1CCCCCOCc1cc2ccccc2c2ccccc12 | 100 | 10000 | Not Active | – | – | – | –
9 | OC[C@H]1[C@@H](O)[C@H](O)[C@@H](O)CN1CCCCCOCc1cc2ccccc2c2ccccc12 | 200 | 600000 | Not Active | – | – | – | –
10 | OC[C@@H]1[C@@H](O)[C@H](O)[C@@H](O)CN1CC(F)(F)CCCOCc1ccc(-c2ccccc2)cc1 | 10 | 125 | – | > 100000 | 35000 | > 100000 | 1250
11 | OC[C@@H]1[C@@H](O)[C@H](O)[C@@H](O)CN1CCCC(F)(F)COCc1ccc(-c2ccccc2)cc1 | 1 | 300 | – | 9000 | 400 | 27000 | 60
12 | C[C@H](OCCCCCN1C[C@H](O)[C@@H](O)[C@H](O)[C@H]1CO)c1ccc(-c2ccccc2)cc1 | 3 | 400000 | – | 2500 | 250 | 9000 | –
13 | OC[C@H]1[C@@H](O)[C@H](O)[C@@H](O)CN1CC(F)(F)CCCOCc1ccc(-c2ccccc2)cc1 | – | – | – | > 100000 | > 100000 | > 100000 | 20
